Test results taken from US10351547B2, “Somatostatin modulators and uses thereof” (priority 2016, dated 2019).

These compounds were tested against human SSTR2 (Homo sapiens (Human), UniProt P30874) (assay: Human SSTR2 intracellular cAMP functional assay for agonists (HTRF)). Conditions: not given.
Format: cell-based
Procedure: Functional Assay for SSTR2 Agonists
General overview: All five SSTR subtypes are Gi coupled G-protein coupled receptors (GPCRs) that lead to decreases in intracellular cyclic AMP (cAMP) when activated by an agonist. […] Human SSTR2 intracellular cAMP assay is described below. The human SSTR1, 3, 4 and 5 assays follow the same protocol of SSTR2.
The cells are cultured at 37° C., 5% CO2 and 95% humidity. […] The cells are incubated for 20 minutes at 37° C. […] The cells are treated with 50 μL of lysis buffer (HRTF cAMP kit, Cisbio). […] The time-resolved fluorescent signal is read with a Tecan M1000Pro multiplate reader. The intracellular cAMP concentrations are calculated by regression to a standard curve and are plotted vs. the concentration of the compounds of the invention and the EC50 of the compounds are calculated using standard methods. All data manipulations are in GraphPad Prism v6.

human SSTR2, sequence (P30874 whole entry): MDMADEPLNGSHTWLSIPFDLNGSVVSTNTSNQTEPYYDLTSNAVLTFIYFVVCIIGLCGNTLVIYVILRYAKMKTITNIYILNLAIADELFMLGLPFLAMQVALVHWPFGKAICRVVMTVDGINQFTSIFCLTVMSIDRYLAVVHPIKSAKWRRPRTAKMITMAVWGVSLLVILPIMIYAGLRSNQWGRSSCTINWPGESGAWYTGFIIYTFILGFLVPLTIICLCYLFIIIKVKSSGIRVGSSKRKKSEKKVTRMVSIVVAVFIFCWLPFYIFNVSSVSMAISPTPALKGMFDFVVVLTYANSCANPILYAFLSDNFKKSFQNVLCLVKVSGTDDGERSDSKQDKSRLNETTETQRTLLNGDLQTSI

Row | SMILES | EC50 [nM]
1 | CO/N=C/c1cc(F)cc(-c2cnc3ccc(-c4cccc(C#N)c4O)cc3c2N2CCC(N)CC2)c1 [2-70, 3-[4-(4-aminopiperidin-1-yl)-3-{3-fluoro-5-[(1E)-(methoxyimino)methyl]phenyl}quinolin-6-yl]-2-hydroxybenzonitrile] | 10 to 100
2 | Cc1cc(F)cc(-c2cnc3ccc(-c4cccc(C#N)c4O)cc3c2N2CC(CN)C2)c1 [2-12, 3-{4-[3-(aminomethyl)azetidin-1-yl]-3-(3-fluoro-5-methylphenyl)quinolin-6-yl}-2-hydroxybenzonitrile] | 10 to 100
3 | CONC(=O)Nc1nc(C)ccc1-c1ccc2ncc(-c3cc(C)cc(F)c3)c(N3CCC(N)CC3)c2c1 [2-239, 1-{3-[4-(4-aminopiperidin-1-yl)-3-(3-fluoro-5-methylphenyl)quinolin-6-yl]-6-methylpyridin-2-yl}-3-methoxyurea] | 10 to 100
4 | COCCOCOc1c(C#N)cccc1-c1ccc2ncc(-c3cc(F)cc(F)c3)c(N3CCC(N)CC3)c2c1 [2-87, 3-[4-(4-aminopiperidin-1-yl)-3-(3,5-difluorophenyl)quinolin-6-yl]-2-[(2-methoxyethoxy)methoxy]benzonitrile] | 10 to 100
5 | N#Cc1cccc(-c2ccc3ncc(-c4cc(F)cc(F)c4)c(N4CC[C@@H](N)[C@@H](O)C4)c3c2)c1O (relative stereo) [2-60, cis-3-{4-[4-amino-3-hydroxypiperidin-1-yl]-3-(3,5-difluorophenyl)quinolin-6-yl}-2-hydroxybenzonitrile] | < 10

Same assay, conditions: CHO-K1 cells stably expressing human SSTR2; NKH477-stimulated cAMP; read-out: EC50 (inhibition of cAMP activities via human SST2R)

Row | SMILES | EC50 [nM]
6 | COCOc1c(C#N)cccc1-c1ccc2ncc(-c3cc(F)cc(F)c3)c(N3CC[C@H](N)[C@H](OC)C3)c2c1 [2-62, 3-{4-[(3R,4S)-4-amino-3-methoxypiperidin-1-yl]-3-(3,5-difluorophenyl)quinolin-6-yl}-2-(methoxymethoxy)benzonitrile] | < 10
7 | CONC(=O)Nc1c(F)cncc1-c1ccc2ncc(-c3cc(C)cc(F)c3)c(N3CCC(N)CC3)c2c1 [2-172, 1-{3-[4-(4-aminopiperidin-1-yl)-3-(3-fluoro-5-methylphenyl)quinolin-6-yl]-5-fluoropyridin-4-yl}-3-methoxyurea] | < 10
8 | COCCNCC1CN(c2c(-c3cc(C)cc(F)c3)cnc3ccc(-c4cc(F)cc(C#N)c4O)cc23)C1 [2-27, 3-[3-(3-fluoro-5-methylphenyl)-4-(3-{[(2-methoxyethyl)amino]methyl}azetidin-1-yl)quinolin-6-yl]-5-fluoro-2-hydroxybenzonitrile] | < 10
9 | N#CCOc1c(C#N)cccc1-c1ccc2ncc(-c3cc(F)cc(F)c3)c(N3CCC(N)CC3)c2c1 [2-231, 3-[4-(4-aminopiperidin-1-yl)-3-(3,5-difluorophenyl)quinolin-6-yl]-2-(cyanomethoxy)benzonitrile] | < 10
10 | CONC(=O)Nc1c(F)cc(F)cc1-c1ccc2ncc(-c3cc(F)cc(F)c3)c(N3CCC(N)CC3)c2c1 [2-139, 1-{2-[4-(4-aminopiperidin-1-yl)-3-(3,5-difluorophenyl)quinolin-6-yl]-4,6-difluorophenyl}-3-methoxyurea] | < 10
11 | COCOc1c(C#N)cccc1-c1ccc2ncc(-c3cc(F)cc(F)c3)c(N3CC[C@H](N)[C@H](O)C3)c2c1 (relative stereo) [2-58, 3-{4-[cis-4-amino-3-hydroxypiperidin-1-yl]-3-(3,5-difluorophenyl)quinolin-6-yl}-2-(methoxymethoxy)benzonitrile] | < 10
12 | Cc1cc(C)cc(-c2nnc3cc(Cl)c(-c4cccc(C#N)c4O)cc3c2N2CCC(N)CC2)c1 [1-2, 3-[4-(4-aminopiperidin-1-yl)-7-chloro-3-(3,5-dimethylphenyl)cinnolin-6-yl]-2-hydroxybenzonitrile] | < 10
13 | Cc1cc(F)cc(-c2cnc3ccc(-c4cc(F)cc(C#N)c4O)cc3c2N2CC(CNC3CC3)C2)c1 [2-29, 3-[4-(3-cyclopropylaminomethyl-azetidin-1-yl)-3-(3-fluoro-5-methyl-phenyl)-quinolin-6-yl]-5-fluoro-2-hydroxy-benzonitrile] | < 10
14 | Cc1cc(F)cc(-c2cnc3ncc(-c4cc(F)cc(C#N)c4O)cc3c2N2CCC(N)CC2)c1 [4-3, 3-[5-(4-aminopiperidin-1-yl)-6-(3-fluoro-5-methylphenyl)-1,8-naphthyridin-3-yl]-5-fluoro-2-hydroxybenzonitrile] | < 10
15 | Oc1ncccc1-c1ccc2ncc(-c3cc(F)cc(F)c3)c(N3CC[C@H]4NCCO[C@@H]4C3)c2c1 [2-248, 3-{4-[trans-octahydro-1H-pyrido[3,4-b]morpholin-6-yl]-3-(3,5-difluorophenyl)quinolin-6-yl}pyridin-2-ol] | < 10
16 | N#Cc1cc(F)cc(-c2ccc3ncc(-c4cc(F)cc(F)c4)c(N4CC[C@H](N)[C@H](O)C4)c3c2)c1O (relative stereo) [2-63, 3-{4-[cis-4-amino-3-hydroxypiperidin-1-yl]-3-(3,5-difluorophenyl)quinolin-6-yl}-5-fluoro-2-hydroxybenzonitrile] | < 10
17 | Cc1cc(F)cc(-c2cnc3ccc(-c4cc(F)cc(F)c4NC(=O)N(C)C)cc3c2N2CCC(N)CC2)c1 [2-199, 1-{2-[4-(4-aminopiperidin-1-yl)-3-(3-fluoro-5-methylphenyl)quinolin-6-yl]-4,6-difluorophenyl}-3,3-dimethylurea] | < 10
18 | Oc1cccnc1-c1ccc2ncc(-c3cc(F)cc(F)c3)c(N3CC[C@H]4NCCO[C@@H]4C3)c2c1 (relative stereo) [2-263, 2-{4-[trans-octahydro-1H-pyrido[3,4-b]morpholin-6-yl]-3-(3,5-difluorophenyl)quinolin-6-yl}pyridin-3-ol] | < 10
19 | CN(C)C(=O)[C@@H]1CN(c2c(-c3cc(F)cc(F)c3)cnc3ccc(-c4cccc(C#N)c4O)cc23)CC[C@H]1N (relative stereo) [2-151, trans-4-amino-1-[6-(3-cyano-2-hydroxyphenyl)-3-(3,5-difluorophenyl)quinolin-4-yl]-N,N-dimethylpiperidine-3-carboxamide] | 100 to 1000
20 | CONC(=O)Nc1c(F)cc(F)cc1-c1ccc2ncc(-c3cc(F)cc(OC)c3)c(N3CCC(N)CC3)c2c1 [2-164, 1-{2-[4-(4-aminopiperidin-1-yl)-3-(3-fluoro-5-methoxyphenyl)quinolin-6-yl]-4,6-difluorophenyl}-3-methoxyurea] | < 10
21 | COC(=O)Nc1c(F)cc(F)c(F)c1-c1ccc2ncc(-c3cc(F)cc(F)c3)c(N3CCC(N)CC3)c2c1 [2-123, methyl N-{2-[4-(4-aminopiperidin-1-yl)-3-(3,5-difluorophenyl)quinolin-6-yl]-3,4,6-trifluorophenyl}carbamate] | < 10
22 | CONC(=O)Nc1cc(F)cc(-c2ccc3ncc(-c4cc(C)cc(F)c4)c(N4CCC(N)CC4)c3c2)c1 [2-223, 1-{3-[4-(4-aminopiperidin-1-yl)-3-(3-fluoro-5-methylphenyl)quinolin-6-yl]-5-fluorophenyl}-3-methoxyurea] | < 10
23 | NC(=O)c1cc(F)cc(-c2ccc3nnc(-c4cc(Cl)cc(Cl)c4)c(N4CCC(NCCF)CC4)c3c2)c1 [1-33, 3-[3-(3,5-dichlorophenyl)-4-{4-[(2-fluoroethyl)amino]piperidin-1-yl}cinnolin-6-yl]-5-fluorobenzamide] | < 10
24 | Cc1cc(F)cc(-c2cnc3ccc(-c4cc(F)c5[nH]c(=O)[nH]c5c4)nc3c2N2CCC(N)CC2)c1 [3-5, 6-[8-(4-aminopiperidin-1-yl)-7-(3-fluoro-5-methylphenyl)-1,5-naphthyridin-2-yl]-4-fluoro-2,3-dihydro-1H-1,3-benzodiazol-2-one] | < 10
25 | Cc1ccnc(-c2ccc3ncc(-c4cc(F)cc(F)c4)c(N4CC[C@H]5NCCO[C@@H]5C4)c3c2)c1O [2-258, 2-{4-[trans-octahydro-1H-pyrido[3,4-b]morpholin-6-yl]-3-(3,5-difluorophenyl)quinolin-6-yl}-4-methylpyridin-3-ol] | < 10
26 | CON(C)C(=O)Nc1c(F)cc(F)cc1-c1ccc2ncc(-c3cc(C)cc(F)c3)c(N3CCC(N)CC3)c2c1 [2-198, 1-{2-[4-(4-aminopiperidin-1-yl)-3-(3-fluoro-5-methylphenyl)quinolin-6-yl]-4,6-difluorophenyl}-3-methoxy-3-methylurea] | < 10
27 | COCCOc1c(C#N)cccc1-c1ccc2ncc(-c3cc(F)cc(F)c3)c(N3CCC(N)CC3)c2c1 [2-72, 3-[4-(4-aminopiperidin-1-yl)-3-(3,5-difluorophenyl)quinolin-6-yl]-2-(2-methoxyethoxy)benzonitrile] | < 10
28 | COCCNc1ncc(C#N)cc1-c1ccc2ncc(-c3cc(C)cc(F)c3)c(N3CCC(N)CC3)c2c1 [2-242, 5-[4-(4-aminopiperidin-1-yl)-3-(3-fluoro-5-methylphenyl)quinolin-6-yl]-6-[(2-methoxyethyl)amino]pyridine-3-carbonitrile] | < 10
29 | NC1CCN(c2c(-c3cc(F)cc(F)c3)cnc3ccc(-c4cccc(C=NO)n4)cc23)CC1 [2-200, 1-[3-(3,5-difluorophenyl)-6-{6-[(hydroxyimino)methyl]pyridin-2-yl}quinolin-4-yl]piperidin-4-amine] | < 10
30 | CC#Cc1cncc(-c2ccc3ncc(-c4cc(F)cc(F)c4)c(N4CC[C@H]5NCCO[C@@H]5C4)c3c2)c1N (relative stereo) [2-272, 3-{4-[trans-octahydro-1H-pyrido[3,4-b]morpholin-6-yl]-3-(3,5-difluorophenyl)quinolin-6-yl}-5-(prop-1-yn-1-yl)pyridin-4-amine] | < 10
31 | N#Cc1cccc(-c2ccc3ncc(-c4cc(F)cc(F)c4)c(N4CC[C@H](N)[C@H](C#N)C4)c3c2)c1O (relative stereo) [2-94, cis-4-amino-1-[6-(3-cyano-2-hydroxyphenyl)-3-(3,5-difluorophenyl)quinolin-4-yl]piperidine-3-carbonitrile] | 10 to 100
